According to ChEMBL document CHEMBL1130869, “Peptide-based inhibitors of the hepatitis C virus serine protease” (Bioorg Med Chem Lett, 1998):
Starred links: 1 amine or outer side, 2 acyl side, 3 side chain; linkers in the order of their positions; H or OH if unused. Non-standard residues stand in square brackets, D forms with d. Residues, ends and D or L forms follow the SMILES beside them. Pen = CC(C)(S)[C@H](N)C(=O)O; Suc = O=C(CCC(=O)[*:2])[*:1]; Tle = CC(C)(C)[C@H](N)C(=O)O; Dap = NC[C@H](N)C(=O)O

The molecules below were run against NS3 (Hepatitis C virus, UniProt A3EZJ3) (assay: Inhibitory activity against NS3-4A pep protease). Conditions: not given.
Sequence of NS3 (A3EZJ3 whole entry): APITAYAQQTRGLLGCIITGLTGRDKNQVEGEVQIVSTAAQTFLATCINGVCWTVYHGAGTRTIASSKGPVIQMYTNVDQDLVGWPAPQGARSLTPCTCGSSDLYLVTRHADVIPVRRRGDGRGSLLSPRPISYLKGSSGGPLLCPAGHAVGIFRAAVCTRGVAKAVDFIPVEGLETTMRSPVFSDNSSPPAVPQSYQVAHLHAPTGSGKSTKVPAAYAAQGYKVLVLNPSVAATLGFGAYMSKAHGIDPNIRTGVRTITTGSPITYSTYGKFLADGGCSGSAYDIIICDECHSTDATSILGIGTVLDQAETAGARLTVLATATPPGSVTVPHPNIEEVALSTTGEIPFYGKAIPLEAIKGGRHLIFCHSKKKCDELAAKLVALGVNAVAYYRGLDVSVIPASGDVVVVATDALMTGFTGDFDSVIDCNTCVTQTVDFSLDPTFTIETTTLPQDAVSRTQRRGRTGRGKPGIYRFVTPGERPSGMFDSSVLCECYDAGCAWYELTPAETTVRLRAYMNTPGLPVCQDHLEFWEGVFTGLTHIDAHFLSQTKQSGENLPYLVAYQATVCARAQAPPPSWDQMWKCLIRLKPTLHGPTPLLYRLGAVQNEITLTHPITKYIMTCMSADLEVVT
Parameters: species or system Hepacivirus hominis
In the case of CC[C@H](C)[C@H](NC(=O)C(NC(=O)[C@H](CC(=O)O)NC(C)=O)C(C)C)C(=O)N[C@H](C(=O)N1CCC[C@H]1C(=O)N[C@@H](CS)C(=O)O)C(C)C (single isomer, unassigned), the IC50 is reported as 7.5 µM. In the case of CC[C@H](C)[C@H](NC(=O)[C@H](CC(=O)O)NC(=O)[C@H](CC(=O)O)NC(C)=O)C(=O)N[C@H](C(=O)N1CCC[C@H]1C(=O)N[C@@H](CSC)C(=O)O)C(C)C (Ac-DDIVPC(Me)-OH), the IC50 is reported as 160 µM. CC[C@H](C)[C@H](NC(=O)[C@H](CC(=O)O)NC(=O)[C@H](CC(=O)O)NC(C)=O)C(=O)N[C@H](C(=O)N1CCC[C@H]1C(=O)N[C@@H](CS)C(=O)O)C(C)C [listing 1 of 2 here] showed an IC50 of 28 µM. With Ac-DDAVPC-OH the IC50 was 580 µM. Ac-DDIVPM-OH was tested, and the IC50 was 500 µM. Work on Ac-DIVPC-OH yielded an IC50 of 130 µM. CC[C@H](C)[C@H](NC(=O)CCC(=O)O)C(=O)N[C@H](C(=O)N1CCC[C@H]1C(=O)N[C@@H](CS)C(=O)O)C(C)C (Suc-IVPC-OH) gave an IC50 of 830 µM. With CC[C@@H](C)[C@@H](NC(=O)[C@H](CC(=O)O)NC(=O)[C@H](CC(=O)O)NC(C)=O)C(=O)N[C@H](C(=O)N1CCC[C@H]1C(=O)N[C@@H](CS)C(=O)O)C(C)C the IC50 was 800 µM. With Ac-DDIVPA-OH the IC50 was 710 µM. Molecule CC[C@H](C)[C@H](NC(=O)[C@H](CC(=O)O)NC(=O)CCC(=O)O)C(=O)N[C@H](C(=O)N1CCC[C@H]1C(=O)N[C@@H](CS)C(=O)O)C(C)C has an IC50 of 33 µM. CC[C@H](C)[C@H](NC(=O)[C@H](CC(=O)O)NC(=O)[C@H](CC(=O)O)NC(C)=O)C(=O)N[C@H](C(=O)N1CCC[C@H]1C(=O)N[C@@H](CS)C(=O)O)C(C)C [listing 2 of 2 here] showed an IC50 greater than 1000 µM. Work on CC[C@H](C)[C@H](NC(=O)[C@H](CC(=O)O)NC(=O)[C@H](CC(=O)O)NC(C)=O)C(=O)N[C@H](C(=O)N1CCC[C@H]1C(=O)NC(CS)C(=O)O)C(C)C (single isomer, unassigned) yielded an IC50 of 330 µM. With CC[C@H](C)[C@H](NC(=O)C(CC(=O)O)NC(=O)[C@H](C)NC(C)=O)C(=O)N[C@H](C(=O)N1CCC[C@H]1C(=O)N[C@@H](CS)C(=O)O)C(C)C (single isomer, unassigned) the IC50 was 200 µM. In the case of CC[C@H](C)[C@H](NC(=O)[C@H](CC(=O)O)NC(=O)[C@H](CC(=O)O)NC(C)=O)C(=O)N[C@H](C(=O)N1CCC[C@H]1C(=O)N[C@@H](CN)C(=O)O)C(C)C (Ac-DDIVP[Dap]-OH), the IC50 is reported as greater than 1000 µM. For CC[C@H](C)[C@H](NC(=O)[C@H](CC(=O)O)NC(=O)[C@H](CC(=O)O)NC(C)=O)C(=O)N[C@H](C(=O)N1CCC[C@H]1C(=O)N[C@H](C(=O)O)C(C)(C)S)C(C)C (Ac-DDIVP[Pen]-OH), the IC50 was 630 µM. For CC[C@H](C)[C@H](NC(=O)[C@H](CC(=O)O)NC(=O)[C@@H](CC(=O)O)NC(C)=O)C(=O)N[C@H](C(=O)N1CCC[C@H]1C(=O)N[C@@H](CS)C(=O)O)C(C)C, the IC50 was 40 µM. In the case of CC[C@H](C)[C@H](NC(=O)[C@@H](NC(=O)[C@H](CC(=O)O)NC(C)=O)C(C)(C)C)C(=O)N[C@H](C(=O)N1CCC[C@H]1C(=O)N[C@@H](CS)C(=O)O)C(C)C (Ac-D[Tle]IVPC-OH), the IC50 is reported as 20 µM. In the case of CC[C@H](C)[C@H](NC(=O)[C@@H](NC(=O)[C@H](CC(=O)O)NC(C)=O)C(C)C)C(=O)N[C@H](C(=O)N1CCC[C@H]1C(=O)N[C@@H](CS)C(=O)O)C(C)C, the IC50 is reported as 52 µM. Work on H-GEAGDDIVPC-OH yielded an IC50 of 52 µM. Work on CC[C@H](C)[C@H](NC(=O)C(CC(=O)O)NC(=O)[C@H](CC(=O)O)NC(C)=O)C(=O)N[C@H](C(=O)N1CCC[C@H]1C(=O)N[C@@H](CS)C(=O)O)C(C)C (single isomer, unassigned) yielded an IC50 of 4 µM. In the case of Ac-DDIVAC-OH, the IC50 is reported as 93 µM. Molecule Ac-DAIVPC-OH has an IC50 of 140 µM. CC[C@H](C)[C@H](NC(=O)[C@H](CC(=O)O)NC(=O)[C@H](CC(=O)O)NC(C)=O)C(=O)NC(C(=O)N1CCC[C@H]1C(=O)N[C@@H](CS)C(=O)O)C(C)C (single isomer, unassigned) showed an IC50 of 830 µM. CC[C@H](C)[C@H](NC(=O)[C@H](CC(=O)O)NC(=O)[C@H](C)NC(C)=O)C(=O)N[C@H](C(=O)N1CCC[C@H]1C(=O)N[C@@H](CS)C(=O)O)C(C)C was tested, and the IC50 was 200 µM. Ac-DDIAPC-OH showed an IC50 of 890 µM. Ac-DDIVPS-OH was tested, and the IC50 was greater than 1000 µM. CC[C@H](C)[C@H](NC(=O)C(CC(=O)O)NC(=O)CCC(=O)O)C(=O)N[C@H](C(=O)N1CCC[C@H]1C(=O)N[C@@H](CS)C(=O)O)C(C)C (single isomer, unassigned) showed an IC50 of 76 µM. Work on H-DDIVPC-OH yielded an IC50 of 71 µM.

Each molecule was assayed against Hepatitis C virus serine protease, NS3/NS4A (Hepatitis C virus, UniProt A3EZI9+D2K2A8) (assay: The apparent Ki value against NS3-4Apep protease). Conditions: read-out: Ki app.
Sequence of Hepatitis C virus serine protease, NS3/NS4A (D2K2A8 whole entry): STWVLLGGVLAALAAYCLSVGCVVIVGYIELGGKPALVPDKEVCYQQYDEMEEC
Sequence of Hepatitis C virus serine protease, NS3/NS4A (A3EZI9 whole entry): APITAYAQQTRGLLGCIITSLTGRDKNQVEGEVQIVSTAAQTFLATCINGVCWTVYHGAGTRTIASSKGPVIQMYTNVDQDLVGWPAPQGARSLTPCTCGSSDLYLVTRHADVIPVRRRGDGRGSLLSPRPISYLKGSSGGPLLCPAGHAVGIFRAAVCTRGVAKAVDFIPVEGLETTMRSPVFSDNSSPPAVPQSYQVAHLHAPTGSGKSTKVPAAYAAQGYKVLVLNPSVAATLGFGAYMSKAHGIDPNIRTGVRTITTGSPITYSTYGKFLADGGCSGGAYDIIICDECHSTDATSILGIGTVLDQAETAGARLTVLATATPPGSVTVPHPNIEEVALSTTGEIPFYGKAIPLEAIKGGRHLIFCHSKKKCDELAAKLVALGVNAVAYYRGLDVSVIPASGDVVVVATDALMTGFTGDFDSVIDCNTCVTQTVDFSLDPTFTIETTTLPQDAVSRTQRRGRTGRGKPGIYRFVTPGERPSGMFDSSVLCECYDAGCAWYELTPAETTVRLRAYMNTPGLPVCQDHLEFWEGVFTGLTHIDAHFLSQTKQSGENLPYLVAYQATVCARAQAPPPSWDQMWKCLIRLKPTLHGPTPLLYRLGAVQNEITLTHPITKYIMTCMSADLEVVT
Assay type: protein-complex assay, Hepacivirus hominis
With CC[C@H](C)[C@H](NC(=O)C(CC(=O)O)NC(=O)[C@H](CC(=O)O)NC(C)=O)C(=O)N[C@H](C(=O)N1CCC[C@H]1C(=O)N[C@@H](CS)C(=O)O)C(C)C (single isomer, unassigned) the Ki was 0.6 µM. Work on H-DDIVPC-OH yielded a Ki of 14 µM.
